Patent US7288273B1, “Gallotannins and ellagitannins as regulators of cytokine release” (The Penn State Research Foundation, priority 2000, dated 2007)

Key:
[1] = tested on: LPS induced TNF-α secretion from h-PBMC's; assay: Inhibition of LPS induced TNF-α secretion from h-PBMC's; type: cell-based, human; conditions: for TNF-α secreted in the presence of LPS and 17c-20c: compound 10 μg/mL added after 45 minutes, h-PBMC's 3rd subject; for TNF-α secreted in the presence of LPS and 17c-20c / TNF-α secreted in the presence of LPS and 19c / 20c / TNF-α secreted in the presence of LPS and 18c-20c: ± SD; for TNF-α secreted in the presence of LPS and 19c / 20c: 8 h incubation; for TNF-α secreted in the presence of LPS and 19c / 20c / TNF-α secreted in the presence of LPS and 18c-20c: 4th subject
Method: In the second study, the ability of compounds 17c-20c to inhibit LPS induced TNF-α production in h-PBMC's was investigated using four assays. The first experiment was a kinetics run in which the h-PBMC's were initially incubated with a fixed concentration of LPS (5 μg/mL) for 45 minutes. This incubation period was followed by addition of a fixed concentration (10 μg/mL) of compounds 17c-20c. The cells were harvested at varying intervals of time. […] The optimal time was determined by comparing the amount of TNF-α secreted by LPS alone to the amount of TNF-α secreted by LPS and substrate at each time point.
The second assay determined the minimum amount of substrate required for inhibition. LPS (10 μg/mL) was incubated with h-PBMC's for 45 minutes followed by addition of 17c-20c at varying concentrations. The cell culture supernatant was harvested after 8 hours. The inherent variability in using cells from different subjects, or in the day of assay, made it difficult to compare overall effectiveness of inhibitors. Therefore, to more easily identify the concentration at which maximum inhibition occurs for a given compound, the TNF-α secretion was normalized by calculating a percent of maximum secretion value (based on LPS alone) (FIG. 13). […] The optimal concentration for inhibition varied between substrates, but the general dose response trend was the same. Overall, the maximum inhibition was 45% for 18c and 20c, and 25% for 19c.
The third assay investigated the ability of 17c, 18c, and 20c to inhibit LPS induced TNF-α secretion using a smaller dosage of LPS (5 μg/mL) (FIG. 14). Again, the response was dose dependent. The maximum inhibition was 45% for 17c and 20c, and 35% for 18c.
In the fourth assay the varying concentrations of substrates 17c-20c and LPS were added at the same time to determine the effect of addition sequence on the inhibition of TNF-α secretion (FIG. 15). The addition time seemed to make a difference in the overall dose response trend. However, maximum inhibition was the same as when the compounds were added 45 minutes after LPS addition (about 40% for each compound).
Finally, in the last study, analogs 19c and 20c were again tested for inhibition LPS induced TNF-α secretion (FIG. 17). In this assay a smaller dose of LPS was used to determine if inhibition was greater when much lower doses of LPS were present. The substrates were added 45 minutes after LPS addition and the cells were harvested after 8 hours. It doesn't appear as though the substrates are better inhibitors when smaller amounts of LPS are used, again perhaps reflecting receptor saturation with LPS at this dosage.

[2] = tested on: TNF-α secretion from h-PBMC's; assay: TNF-α release from h-PBMC's, ELISA; type: cell-based, human; conditions: 24 hours, ± SD
Method: Authentic samples of agrimoniin and coriariin A were supplied by Professor Yoshida (Okayama University, Japan). Dimeric gallotannin (analog of coriariin A) and β-D-PGG were synthesized as described. LPS (E. coli 055:B5 phenol extract, MW range 50-100 KD). Ficoll-Histopaque (ρ=1.077 g/mL), Fetal Bovine Serum, sterile, hybridoma tested (FCS), gentamicin 10 mg/mL. L-glutamine, 200 mM. Dextran B-512 Leuconostoc Av M.W. 580000, and Trypan Blue stain were purchased from Sigma. Hanks Buffer Saline Solution 1×, with phenol red, mediatech (HBSS) and RPMI 1640 1×, mediatech were purchased from Fisher Scientific, Human IL-1β and TNF-α Enzyme Linked ImmunoSorbent Assay (ELISA) kits were purchased from R and D Systems, Minneapolis, Minn. Fresh heparinized blood was obtained from health human subjects (ages 20-34).
Dose-Response Data: General Procedure. H-PBMC's were isolated by reported procedures (10. 18). The cells counted and the viability was determined by Trypan Blue exclusion (typically, viability exceeded 95%). The concentration of the cells in the 0.5 mL wells was adjusted to 1×10^6 cells/well by diluting with the required amount of RPMI.
The appropriate amount of a tannin (or LPS) stock solution in HBSS was added to each well to furnish the concentration values reported in the Figures. […] The culture plates were incubated in a 5% CO2, 37° C. humidified incubator for the indicated time. At the end of the time interval, 450 μL of the culture supernatant from each well was harvested, after centrifugation at 400 g, 25° C., 10 min. with brake, and stored at −78° C. pending ELISA analysis for the cytokine(s). The ELISA assays were conducted per the manufacturer's instructions using standard calibration curves to calculate cytokine concentration from observed absorbance readings. The cytokine values reported are averages of three runs±SE.
The dimeric antitumor ellagitannins coriariin A and agrimoniin, the monomeric gallotannin β-D-pentagalloylglucose (β-D-PGG) and the dimeric gallotannin of this invention were all examined in this study. The dimeric gallotannin is an analog of coriariin A and is identical to the parent ellagitannin except that the galloyl rings at O(4) and O(6) are not joined in a hexahydroxydiphenoyl (HHDP) linkage. h-PBMC's were incubated with the compound under investigation for the indicated length of time and the amounts of both IL-1β and, independently, TNF-α, present in the culture supernatants was determined using commercially available ELISA kits. In each case, LPS was used as a positive control while untreated cells were reserved as negative controls.
In the first study, the induction of TNF-α secretion from h-PBMC's in the presence of each compound 17c-21c was measured. The h-PBMC's were incubated with each compound for 24 hours. The TNF-α levels in the cell culture supernatant were assayed by Enzyme Linked ImmunoSorbant Assay (ELISA). The data point for each assay represent the mean of triplicate measurements. […] (See FIG. 11).

[3] = LPS 10 μg/mL, substrate added after 45 minutes, 8 hours
[4] = compound 0.6 μM added 45 minutes after LPS 1 μg/mL
[5] = compound 0.6 μM added 45 minutes after LPS 10 μg/mL, 8 hours

SMILES: O=C(OC[C@H]1O[C@@H](OC(=O)c2ccc(-c3ccc(C(=O)O[C@@H]4O[C@H](COC(=O)c5cc(O)c(O)c(O)c5)[C@@H](OC(=O)c5cc(O)c(O)c(O)c5)[C@H](OC(=O)c5cc(O)c(O)c(O)c5)[C@H]4OC(=O)c4cc(O)c(O)c(O)c4)cc3)cc2)[C@H](OC(=O)c2cc(O)c(O)c(O)c2)[C@@H](OC(=O)c2cc(O)c(O)c(O)c2)[C@@H]1OC(=O)c1cc(O)c(O)c(O)c1)c1cc(O)c(O)c(O)c1 [Compound 19c, 1,1′-O-2.2′,3,3′,4,4′,6,6′-Tetrakis(3,4,5-trihyroxybenzoyl)-β,β′-D,D′-glucopyranosylbiphenyl-4.4′-diester]
- TNF-α secreted in the presence of LPS and 17c-20c ([1]; LPS 5 μg/mL, time 1 h): 328.2 ± 61.5 pg/mL
- TNF-α secreted in the presence of LPS and 17c-20c ([1]; LPS 5 μg/mL, time 4 h): 1880.0 ± 20.1 pg/mL
- TNF-α secreted in the presence of LPS and 17c-20c ([1]; LPS 5 μg/mL, time 8 h): 1921.5 ± 399.8 pg/mL
- TNF-α secreted in the presence of LPS and 17c-20c ([1]; LPS 5 μg/mL, time 12 h): 2229.3 ± 353.1 pg/mL
- TNF-α secreted in the presence of LPS and 17c-20c ([1]; LPS 5 μg/mL, time 16 h): 2561.2 ± 718.8 pg/mL
- TNF-α secreted in the presence of LPS and 17c-20c ([1]; LPS 5 μg/mL, time 24 h): 2146.9 ± 69.3 pg/mL
- maximum inhibition of LPS induced TNF-α secretion [1, 3]: 25%
- TNF-α secreted in the presence of LPS and 19c / 20c [1, 4]: 85.1 ± 10.3 % max. response
- TNF-α secreted in the presence of LPS and 18c-20c [1, 5]: 114.3 ± 11.9 % max. response
- TNF-α secreted in the presence of LPS and 19c / 20c ([1]; compound 1.7 μM added 45 minutes after LPS 1 μg/mL): 78.3 ± 9.1 % max. response
- TNF-α secreted in the presence of LPS and 18c-20c ([1]; compound 2.8 μM added 45 minutes after LPS 10 μg/mL, 8 hours): 83.5 ± 26.1 % max. response
- TNF-α secreted in the presence of LPS and 19c / 20c ([1]; compound 3.4 μM added 45 minutes after LPS 1 μg/mL): 81.8 ± 15.9 % max. response
- TNF-α secreted in the presence of LPS and 19c / 20c ([1]; compound 5.6 μM added 45 minutes after LPS 1 μg/mL): 57.5 ± 14.1 % max. response
- TNF-α secreted in the presence of LPS and 18c-20c ([1]; compound 5.6 μM added 45 minutes after LPS 10 μg/mL, 8 hours): 79.4 ± 15.1 % max. response
- TNF-α secreted in the presence of LPS and 19c / 20c ([1]; compound 11.2 μM added 45 minutes after LPS 1 μg/mL): 57.4 ± 7.3 % max. response
- TNF-α secreted in the presence of LPS and 18c-20c ([1]; compound 11.2 μM added 45 minutes after LPS 10 μg/mL, 8 hours): 92.4 ± 21.4 % max. response
- TNF-α secreted in the presence of LPS and 18c-20c ([1]; compound 22.4 μM added 45 minutes after LPS 10 μg/mL, 8 hours): 73.0 ± 12.6 % max. response
- TNF-α secreted in the presence of 17c-21c ([2]; compound 0.6 μM): 73.4 ± 58.3 pg/mL
- TNF-α secreted in the presence of 17c-21c ([2]; compound 2.9 μM): 50.9 ± 28.0 pg/mL
- TNF-α secreted in the presence of 17c-21c ([2]; compound 5.9 μM): 8.0 ± 8.0 pg/mL
- TNF-α secreted in the presence of 17c-21c ([2]; compound 11.8 μM): 9.5 ± 6.5 pg/mL
- TNF-α secreted in the presence of 17c-21c ([2]; compound 17.6 μM): 24.5 ± 10.7 pg/mL
- TNF-α secreted in the presence of 17c-21c ([2]; compound 23.5 μM): 67.6 ± 21.0 pg/mL
- TNF-α secreted in the presence of 17c-21c ([2]; compound 29.4 μM): 117.8 ± 44.0 pg/mL

SMILES: O=C(CCCCCC(=O)OC1O[C@H](COC(=O)c2cc(O)c(O)c(O)c2)[C@@H](OC(=O)c2cc(O)c(O)c(O)c2)[C@H](OC(=O)c2cc(O)c(O)c(O)c2)[C@H]1OC(=O)c1cc(O)c(O)c(O)c1)OC1O[C@H](COC(=O)c2cc(O)c(O)c(O)c2)[C@@H](OC(=O)c2cc(O)c(O)c(O)c2)[C@H](OC(=O)c2cc(O)c(O)c(O)c2)[C@H]1OC(=O)c1cc(O)c(O)c(O)c1 (mixture of isomers) [Compound 20c, 1,1′-O-2,2′,3,3′,4,4′,6,6′-Tetrakis(3,4,5-trihyroxybenzoyl)-β,β′-D,D′-glucopyranosylpimelate]
- TNF-α secreted in the presence of LPS and 17c-20c ([1]; LPS 5 μg/mL, time 1 h): 243.6 ± 52.8 pg/mL
- TNF-α secreted in the presence of LPS and 17c-20c ([1]; LPS 5 μg/mL, time 4 h): 2370.1 ± 95.7 pg/mL
- TNF-α secreted in the presence of LPS and 17c-20c ([1]; LPS 5 μg/mL, time 8 h): 2889.8 ± 383.2 pg/mL
- TNF-α secreted in the presence of LPS and 17c-20c ([1]; LPS 5 μg/mL, time 12 h): 2313.2 ± 339.1 pg/mL
- TNF-α secreted in the presence of LPS and 17c-20c ([1]; LPS 5 μg/mL, time 16 h): 2628.4 ± 571.0 pg/mL
- TNF-α secreted in the presence of LPS and 17c-20c ([1]; LPS 5 μg/mL, time 24 h): 2356.4 ± 400.3 pg/mL
- maximum inhibition of LPS induced TNF-α secretion ([1]; LPS 5 μg/mL, 3rd subject): 45%
- maximum inhibition of LPS induced TNF-α secretion [1, 3]: 45%
- TNF-α secreted in the presence of LPS and 19c / 20c [1, 4]: 109.1 ± 14.9 % max. response
- TNF-α secreted in the presence of LPS and 18c-20c [1, 5]: 89.8 ± 9.2 % max. response
- TNF-α secreted in the presence of LPS and 19c / 20c ([1]; compound 1.8 μM added 45 minutes after LPS 1 μg/mL): 110.6 ± 1.3 % max. response
- TNF-α secreted in the presence of LPS and 18c-20c ([1]; compound 2.9 μM added 45 minutes after LPS 10 μg/mL, 8 hours): 65.6 ± 8.3 % max. response
- TNF-α secreted in the presence of LPS and 19c / 20c ([1]; compound 3.5 μM added 45 minutes after LPS 1 μg/mL): 62.4 ± 10.2 % max. response
- TNF-α secreted in the presence of LPS and 19c / 20c ([1]; compound 5.9 μM added 45 minutes after LPS 1 μg/mL): 69.5 ± 27.9 % max. response
- TNF-α secreted in the presence of LPS and 18c-20c ([1]; compound 5.9 μM added 45 minutes after LPS 10 μg/mL, 8 hours): 67.1 ± 8.9 % max. response
- TNF-α secreted in the presence of LPS and 18c-20c ([1]; compound 11.7 μM added 45 minutes after LPS 10 μg/mL, 8 hours): 63.3 ± 4.7 % max. response
- TNF-α secreted in the presence of LPS and 19c / 20c ([1]; compound 11.8 μM added 45 minutes after LPS 1 μg/mL): 98.4 ± 12.1 % max. response
- TNF-α secreted in the presence of LPS and 18c-20c ([1]; compound 23.5 μM added 45 minutes after LPS 10 μg/mL, 8 hours): 63.9 ± 13.9 % max. response
- TNF-α secreted in the presence of 17c-21c ([2]; compound 0.6 μM): 0 pg/mL
- TNF-α secreted in the presence of 17c-21c ([2]; compound 2.8 μM): 0 pg/mL
- TNF-α secreted in the presence of 17c-21c ([2]; compound 5.6 μM): 0 pg/mL
- TNF-α secreted in the presence of 17c-21c ([2]; compound 11.2 μM): 0 pg/mL
- TNF-α secreted in the presence of 17c-21c ([2]; compound 16.8 μM): 0 pg/mL
- TNF-α secreted in the presence of 17c-21c ([2]; compound 22.3 μM): 0 pg/mL
- TNF-α secreted in the presence of 17c-21c ([2]; compound 27.9 μM): 0 pg/mL
